Data set [1] concerns the target T1, LTC4 synthase (Homo sapiens, UniProt Q16873).
T1 sequence (Q16873 1-150): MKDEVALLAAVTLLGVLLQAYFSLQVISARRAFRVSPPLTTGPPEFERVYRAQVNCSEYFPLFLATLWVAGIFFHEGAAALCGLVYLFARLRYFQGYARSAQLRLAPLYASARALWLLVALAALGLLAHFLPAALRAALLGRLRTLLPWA
The data set is described as follows: Test 2: LTC4 synthase IC50 procedure, ten concentrations, LTC4 HTRF kit. The data set is classed as biochemical. As to conditions: Table 2; cells marked (Test 2). Here is the method:
For certain compounds, in order to obtain IC50-values for the compounds, following procedure was used: • 1. A volume (24 μL) of 0.25 μg/mL LTC4 synthase in 75 mM tris (pH ˜8.5), 0.5 mM MgCl2 and 3 mM GSH was preincubated for 10 min with 0.5 μL of compound of interest in DMSO at ten different concentrations, typically in the range 10^−9,5-10^−5M as well as with DMSO only. The buffer is used as background. Runs are performed in duplicates. • 2. The enzymatic reaction is initiated by addition of 0.5 μL LTA4 in diglyme (final assay concentration 8 μM). • 3. The reaction is stopped after 1 min by addition of double the reaction volume of a stop solution (MeOH:H2O:acetic acid 70:30:1). • 4. After 15 fold dilution in PBS, LTC4 formation is detected with LTC4 HTRF kit (Cisbio, cat. No 64LC4PEC) and a fluorescence reader. Typically 10 μL of sample is mixed with 5 μL of each of the HTRF reagents d2 and k and analyzed as described in the kit manual.
The detected product concentration, with background subtracted, is plotted versus compound concentration and IC50 is determined as 50% of maximum inhibition.
(§1) IC50 values for title compounds of the examples are depicted in the tables hereinafter (where, they are the values obtained using Test 1, unless otherwise indicated).
On the technique in general: Time-resolved FRET reads energy transfer from a long-lived donor to a nearby acceptor.

Data set [2] can be described thus: Thermodynamic aqueous solubility in USP phosphate buffer (Example 25). The data set is classed as physicochemical. Particulars: aqueous buffer, thermodynamic from solid; USP phosphate buffer pH 7.4, 24 h at 20° C., LC-MS/MS; read-out: Thermodynamic aq solubility. Here is the method: The method described here was developed to accurately determine the aqueous solubility of compounds of the invention in buffer solution at a given pH.
Solid material (1 mg) of test compound is added to a glass vial followed by 1 ml of buffer solution (pH 7.4 if another pH not is stated). The solution is left on an orbital shaker for 24 h at 20° C. After incubation, the remaining solid material is separated from solution and the solubility is quantified using LC-MS/MS.
Prepare 0.2 M monobasic potassium phosphate solution by dissolving 27.22 g of KH2PO4 (MW=136.09 g/mol) in water, dilute with water to 1000 mL.
Add 250 mL of the monobasic potassium phosphate solution in a 1000 mL volumetric flask together with 195.5 mL 0.2M NaOH (aq). Add water to 1000 mL. Check pH.
Compounds of the invention/examples to be tested were provided as solid material, weighed into glass vials (2 mL). Each vial contains approximately 1 mg solid compound, two vials/compound are prepared, i.e. duplicate samples of each compound. If a freshly prepared 10 mM DMSO stock solution was available, this solution was used for MS optimization and preparation of standards. If a DMSO-stock solution was not available, a 10 mM solution from solid material 1 mg was prepared.
• Test compounds are employed as solid material. Since duplicate samples are prepared for each compound, each test compound arrives in two vials (1+1 mg). Samples are denoted as sample 1 and 2. • Note amount of substance in each vial. Add USP phosphate buffer pH 7.4 (1 mL) to each sample vial and seal vials using screw caps. Determine whether the solutions are saturated or if compounds are dissolved, note appearance and time. Start incubation; the samples are incubated on an orbital shaker (450 rpm) at 20° C. for 24 hours.
• Take out the 1 mM DMSO-stock solutions of compounds that are to be tested from freezer. If no 1 mM solutions are available, use master solutions with concentration of 10 mM. Allow the solutions to thaw at rt. • Collect two 96-deep well plates, glass inserts, sealing film, and an 8-channel expandable pipette with tall tips. • Abort shaking after 24 hour. • Note if samples are saturated or if compounds have dissolved. • Transfer 720 μL of sample slurry from each sample vial into glass inserts in a 96-deep well plate using an 8-channel expandable pipette. Samples 1 and 2 are transferred to separate plates. Thus, all samples 1 are placed in one plate and all samples 2 in the second plate. • Seal the plates using sealing film. • Centrifuge the plates at 3000 rpm for 15 min at rt. Set acceleration to 9 and brake to 7 (9=fastest acc/brake, 0=slowest acc/brake). • Transfer the supernatants to new glass inserts using an 8-channel pipette, centrifuge samples a second time. • Repeat the procedure above, i.e. centrifuge samples a third time. • After the third centrifugation, transfer supernatant to glass vials, seal vials with screw caps. Control that the solutions are clear and that no particles are present in sample. If solid material is observed, an additional centrifugation step is performed. • Standards are prepared from DMSO-stock solutions (1 or 10 mM). For each compound, transfer […] 1 mM solution to a glass vial, add DMSO (90 μL) to reach a final concentration of 100 μM, seal with screw cap and mix solution quickly on a vortex mixer. Further dilute the 100 μM solution with a 1:1 mixture of acetonitrile and USP phosphate buffer (pH 7.4) to standards with concentration 1000, 500, 100, 25, 2, and 1 nM. Standards are prepared in test tubes.
• Place standards in autosampler. • Try out the dilution of solubility samples so that their response will be within the standard curve. Dilute solubility sample one (or two) with the 1:1 mixture of acetonitrile:buffer. […]

For data set [3], the target named is T1, LTC4 synthase. The data set can be described thus: Test 1 in vitro assay: LTC4 synthase converts LTA4 to LTC4, HTRF detection. The data set is classed as biochemical. Also noted: made in house; host or cells: Pichia pastoris. Particulars: Table 2; Test 1 (unless otherwise indicated). The protocol: In the assay, LTC4 synthase catalyses the reaction where the substrate LTA4 is converted to LTC4. Recombinant human LTC4 synthase is expressed in Piccia pastoralis and the purified enzyme is dissolved in 25 mM tris-buffer pH 7.8 supplemented with 0.1 mM glutathione (GSH) and stored at −80° C. The assay is performed in phosphate buffered saline (PBS) pH 7.4 and 5 mM GSH in 384-well plates.
The following is added chronologically to each well:
1. 48 μL LTC4 synthase in PBS with 5 mM GSH. The total protein concentration in this solution is 0.5 μg/mL. 2. 1 μL inhibitor in DMSO (final concentration 10 μM). 3. Incubation of the plate at room temperature for 10 min. 4. 1 μL LTA4 (final concentration 2.5 μM). 5. Incubation of the plate at room temperature for 5 min. 6. 10 μL of the incubation mixture is analysed using homogenous time resolved fluorescent (HTRF) detection.
as §1

This note sets out measurements from patent US20130035358A1, “Bis Aromatic Compounds for Use as LTC4 Synthase Inhibitors” (priority 2010, published 2013).

Values after ≈ are worked out from the molar mass of the structure shown.

As a reminder, the IC50 is the concentration at which inhibition is half-maximal. Higher therefore signals a need for much substance. What is called thermodynamic solubility is the concentration in solution at equilibrium with solid. On LTC4 synthase [1], `CC(=O)c1ccc(C(=O)c2ccc(N(CC3CC3)c3ccc(Cl)cc3)cn2)cc1C(=O)O` [Example 22, 2-Acetyl-5-(5-((4-chlorophenyl)(cyclopropylmethyl)amino)picolinoyl)benzoic acid] showed an IC50 of 307 nM. In addition, in data set [2], the solubility (thermodynamic) at 24 h was 1860 µM (≈ 835 µg/mL).

`CCC(=O)c1ccc(C(=O)c2ccc(N(CC3CC3)c3ccc(Cl)cc3)cn2)cc1C(=O)O` [Example 23, 5-(5-((4-Chlorophenyl)(cyclopropylmethyl)amino)picolinoyl)-2-propionylbenzoic acid]: the midpoint of inhibition against LTC4 synthase [1], the IC50, lay at 129 nM. For `O=C(c1ccc(C(=O)C2CC2)c(C(=O)O)c1)c1ccc(N(CC2CC2)c2ccc(Cl)cc2)cn1` [Example 24, 5-(5-((4-Chlorophenyl)(cyclopropylmethyl)amino)picolinoyl)-2-(cyclopropanecarbonyl)benzoic acid], at LTC4 synthase [1], half-maximal inhibition (IC50) required 424 nM.

Consider `CN(c1ccc(Cl)cc1)c1ccc(C(=O)c2ccc(C(=O)C3CC4CCC3C4)c(C(=O)O)c2)nc1` (stereo not shown) [Example 15, 2-(Bicyclo[2.2.1]heptane-2-carbonyl)-5-(5-((4-chlorophenyl)(methyl)amino)-picolinoyl)benzoic acid], for which the solubility (thermodynamic) at 24 h in data set [2] is 1980 µM (≈ 969 µg/mL). The molecule further showed an IC50 on LTC4 synthase [3] of 94 nM. As for `CN(c1ccc(Cl)cc1)c1ccc(C(=O)c2ccc(C(=O)C34CC5CC(CC(C5)C3)C4)c(C(=O)O)c2)nc1` [Example 12, 2-(Adamantane-1-carbonyl)-5-(5-((4-chlorophenyl)(methyl)amino)picolinoyl)benzoic acid], in data set [2], the thermodynamic solubility at 24 h is 15 µM (≈ 7.94 µg/mL). At LTC4 synthase [3], this molecule showed an IC50 of 65 nM. As for `CN(c1ccc(Cl)cc1)c1ccc(C(=O)c2ccc(C(=O)CCC3CCCCC3)c(C(=O)O)c2)nc1` [Example 18, 5-(5-((4-Chlorophenyl)(methyl)amino)picolinoyl)-2-(3-cyclohexylpropanoyl)benzoic acid], the solubility (thermodynamic) at 24 h in data set [2] was 37 µM (≈ 18.7 µg/mL). The IC50 against LTC4 synthase [3] amounted to 59 nM.
